Consider 22 compounds from patent US12655150B2 (Cedilla Therapeutics, Inc., priority 2021, dated 2026).

Assay [1] relates to EGFR-mutant NSCLC PC-9 cells. Briefly: Apoptosis (caspase 3/7, IncuCyte) in combination with EGFR inhibitor. It is filed as cell-based. To be noted: apoptotic index. As to the method:
Apoptosis was detected by CellEvent Caspase 3/7 Green ReadyProbes Reagent (ThermoFisher), a fluorogenic indicator of activated caspase-3/7. Cell death (apoptsis) and cell growth (phase confluence) over time were captured by IncuCyte live cell imaging system (Essen Bioscience) and quantified by IncuCyte S3 software (Essen Bioscience). Apoptotic Index was calculated by dividing apoptosis signal with phase confluence.

The next assay concerns NCI-H226. Nature of the assay: 72H TEAD Proliferation Assay (Cell Titer Glo 2.0). To be noted: Homo sapiens, NCI-H226, 72 h, CTG 2.0, cell line not given (NCI-H226 responsive, NCI-H28 non-responsive). It counts as cell-based. The method, boiled down:
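NF2-deficient NCI-H226 mesothelioma cells, TEAD-dependent, treated 72 h; NF2-wild-type NCI-H28 serves as the TEAD-independent counter-screen for off-target cytotoxicity. Viable cells quantified by CellTiter-Glo 2.0 luminescence; background and time-zero signal subtracted, GI50 from nonlinear dose-response fit.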

SMILES strings stand for the structures. Bounds are passed on as bounds.

`CC(C)(C)c1ccc(-c2nc3cc(C(=O)O)ccc3n3cccc23)cc1` [I-41, 4-(4-(tert-butyl)phenyl)pyrrolo[1,2-a]quinoxaline-7-carboxylic acid]: the “Fold Change over DMSO at 48 hrs” value in assay [1] (I-41 (10 μM) alone) is on record as 1.1; in assay [1] (Osimertinib (100 nM) + I-41 (0.37 μM)), 4.3; in assay [1] (Osimertinib (100 nM) + I-41 (1.1 μM)) it was 4.9; in assay [1] (Osimertinib (100 nM) + I-41 (10 μM)), 5.5. For the same compound, in the assay with NCI-H226, the concentration for 50% growth inhibition (GI50) (commonly the concentration giving 50% growth inhibition) is no more than 1000 nM. `CC(C)c1cc(-c2ccc(C(F)(F)F)cc2)nc2cc(C(=O)O)ccc12` [I-425, 4-isopropyl-2-(4-(trifluoromethyl)phenyl)quinoline-7-carboxylic acid] showed a concentration for 50% growth inhibition (GI50) in the assay on NCI-H226 of 1000 to 5000 nM.

As to `CC(C)c1cc(-c2ccc(C(F)(F)F)cc2)nc2cc(C(=O)N[C@H](C)CO)ccc12` [I-426, (R)—N-(1-hydroxypropan-2-yl)-4-isopropyl-2-(4-(trifluoromethyl)phenyl)quinoline-7-carboxamide], in the assay with NCI-H226, the GI50 is 1000 to 5000 nM. For the compound `C[C@H](CO)NC(=O)c1ccc2ccc(-c3ccc(C(F)(F)F)cc3)nc2c1` [I-427, (R)—N-(1-hydroxypropan-2-yl)-2-(4-(trifluoromethyl)phenyl)quinoline-7-carboxamide], in the assay on NCI-H226, the GI50 is 1000 to 5000 nM. On the same count and under the same terms, as for `O=C(N[C@@H](CO)c1ccccc1)c1ccc2ccc(-c3ccc(C(F)(F)F)cc3)nc2c1` [I-428, (R)—N-(2-hydroxy-1-phenylethyl)-2-(4-(trifluoromethyl)phenyl)quinoline-7-carboxamide], the figure is no more than 1000 nM; as for `COc1c(C)c(-c2ccc(C(F)(F)F)cc2)nc2cc(C(=O)N[C@H](C)CO)ccc12` [I-431, (R)—N-(1-hydroxypropan-2-yl)-4-methoxy-3-methyl-2-(4-(trifluoromethyl)phenyl)quinoline-7-carboxamide], 5000 to 10000 nM. The same measure, in the same setting: as for `CCOc1nc(-c2ccc(C(F)(F)F)cc2)nc2cc(C(=O)O)ccc12` [I-432, 4-ethoxy-2-(4-(trifluoromethyl)phenyl)quinazoline-7-carboxylic acid], the figure is no more than 1000 nM. `COc1nc(-c2ccc(C(F)(F)F)cc2)nc2cc(C(=O)O)ccc12` [I-433, 4-methoxy-2-(4-(trifluoromethyl)phenyl)quinazoline-7-carboxylic acid] yielded a GI50 in the assay on NCI-H226 of no more than 1000 nM. `COc1nc(-c2ccc(C(F)(F)F)cc2)nc2cc(C(=O)N[C@H](C)CO)ccc12` [I-434, (R)—N-(1-hydroxypropan-2-yl)-4-methoxy-2-(4-(trifluoromethyl)phenyl)quinazoline-7-carboxamide] returned a GI50 with NCI-H226 of no more than 1000 nM.

`Cc1nc(-c2ccc(C(F)(F)F)cc2)nc2cc(C(=O)O)ccc12` [I-435, 4-methyl-2-(4-(trifluoromethyl)phenyl)quinazoline-7-carboxylic acid] yielded a 50% growth inhibitory concentration (GI50) in the assay with NCI-H226 of 1000 to 5000 nM.

For `Cc1nc(-c2ccc(C(F)(F)F)cc2)nc2cc(C(=O)N[C@H](C)CO)ccc12` [I-436, (R)—N-(1-hydroxypropan-2-yl)-4-methyl-2-(4-(trifluoromethyl)phenyl)quinazoline-7-carboxamide], the GI50 in the assay with NCI-H226 is no more than 1000 nM. On the same count and under the same terms, as for `C=CC(=O)NCc1cn2ccnc2c(N2CCC3(CC2)CC3)n1` [I-437, N-((8-(6-azaspiro[2.5]octan-6-yl)imidazo[1,2-a]pyrazin-6-yl)methyl)acrylamide], the figure is 1000 to 5000 nM; as for `C=CC(=O)NCc1nc(-c2ccc(C(F)(F)F)cc2)n2cccnc12` [I-438, N-((6-(4-(trifluoromethyl)phenyl)imidazo[1,5-a]pyrimidin-8-yl)methyl)acrylamide], 1000 to 5000 nM; as for `C=CC(=O)NCc1cn2ccnc2c(Oc2cccc(C(C)(C)C)c2)n1` [I-441, N-((8-(3-(tert-butyl)phenoxy)imidazo[1,2-a]pyrazin-6-yl)methyl)acrylamide], no more than 1000 nM. The same measure, in the same setting: as for `C=CC(=O)NCc1cn2ccnc2c(Nc2cccc(OC(F)(F)F)c2)n1` [I-442, N-((8-((3-(trifluoromethoxy)phenyl)amino)imidazo[1,2-a]pyrazin-6-yl)methyl)acrylamide], the figure is 1000 to 5000 nM; as for `C=CC(=O)NCc1nc(-c2ccc(C(F)(F)F)cc2)c2ccc(F)cc2n1` [I-445, N-((7-fluoro-4-(4-(trifluoromethyl)phenyl)quinazolin-2-yl)methyl)acrylamide], no more than 1000 nM; as for `C=CC(=O)NCc1nc(-c2ccc(C(C)(C)C)cc2)c2ccc(F)cc2n1` [I-446, N-((4-(4-(tert-butyl)phenyl)-7-fluoroquinazolin-2-yl)methyl)acrylamide], no more than 1000 nM. Still for that read-out and setting: as for `C=CC(=O)NCc1nc(-c2ccc(OC(F)(F)F)cc2)c2ccc(F)cc2n1` [I-447, N-((7-fluoro-4-(4-(trifluoromethoxy)phenyl)quinazolin-2-yl)methyl)acrylamide], the figure is no more than 1000 nM; as for `C=CC(=O)NCc1cn2ccnc2c(-c2ccc(SC(F)(F)F)cc2)n1` [I-448, N-((8-(4-((trifluoromethyl)thio)phenyl)imidazo[1,2-a]pyrazin-6-yl)methyl)acrylamide], no more than 1000 nM. For `C=CC(=O)NCc1nc(-c2ccc(C(F)(F)F)cc2)c2[nH]ccc2n1` [I-450, N-((4-(4-(trifluoromethyl)phenyl)-5H-pyrrolo[3,2-d]pyrimidin-2-yl)methyl)acrylamide], the concentration for 50% growth inhibition (GI50) in the assay with NCI-H226 was 5000 to 10000 nM. Same read-out and setting: as for `C=CC(=O)NCc1nc(-c2ccc(C(F)(F)F)cc2)c2c(ccn2C)n1` [I-451, N-((5-methyl-4-(4-(trifluoromethyl)phenyl)-5H-pyrrolo[3,2-d]pyrimidin-2-yl)methyl)acrylamide], the figure is no more than 1000 nM. With `C=CC(=O)Nc1cc(Nc2nccc(-c3cn(C)c4ccccc34)n2)c(OC)cc1N(C)CCN(C)C` [Osimertinib, reference compound], in assay [1] (Osimertinib (100 nM) alone), the “Fold Change over DMSO at 48 hrs” value was 2.6.
